Data from patent US20070213278A1, “Arrays with cleavable linkers” (priority 2004, published 2007).
Marks after values point to notes of the source that are not given here.

How the values were obtained:
chST6GalNAc-I = molecular target: T1, chST6GalNAc-I (Gallus gallus, UniProt Q92183); assay: chST6GalNAc-I activity on small acceptor molecules; format: biochemical, chicken; conditions: α-D-galacto derivatives as acceptors
T1 construct: made in house; host or cells: insect cells
From the text: The inventors have previously reported the cloning, expression, and characterization of chicken ST6GalNAc-I and its use in preparative synthesis of the O-linked sialoside antigens, STn-, α(2-6)SiaT-, α(2-3)SiaT- and Di-SiaT-antigen. Blixt, O.; Allin, K.; Pereira, L.; Datta, A. and Paulson, J. C., J. Am. Chem. Soc. 2002, 124, 5739-5746. Briefly, the recombinant enzyme was expressed in insect cells and purified by CDP-sepharose affinity chromatography to generate approximately 10 U/L of cell culture.

2G12 anti-HIV antibody = assay: 2G12 binding to glycan array printed on glass slide; set-up: species or system human; conditions: for Rel. spec. (relative binding activity of 2G12): glycan array on glass slide, 2G12 pre-complexed with anti-IgG-FITC; for 2G12 binding on glycan array: initial experiments
From the text: The natural high mannose type N-glycans used for the analysis were purified from pronase treated bovine ribonuclease B on Dionex. Each preparation was a single molecular weight species as determined by MALDI-MS.
Construction of a glycan array printed on a glass slide: The library of carbohydrate structures was obtained through chemical and chemo-enzymatic synthesis as described above, as well as natural sources. This compound library contained a N-hydroxy succinimide (NHS)-reactive primary amino group, which was printed on a commercial NHS-activated glass surface (Accelr8 Technology Corporation, Denver, Colo.) using a microarray gene printer (TSRI).
Each glycan type was printed (≈0.5 nL/spot) at various concentrations (10-100 μM) and each concentration in a replicate of six. Slides were further incubated with ethanolamine buffer to deactivate remaining NHS functional groups.
The 2G12 antibody was pre-complexed (for 10 min) with secondary human anti-IgG-FITC (2:1, 20 μg/mL) prior to application to the glycan array. After incubation with the 2G12 antibodies, the array washed by dipping the slide in buffer and water.

2G12 antibody [1] = assay: Carbohydrate microarray analysis, microtiter plate, oligomannose-2G12 dissociation constants (Example 11); format: binding, human; conditions: microtiter plate array
Protocol: Carbohydrate microarray analysis. Ninety-six well NHS-coated microtiter plates (NoAb Biodiscoveries) were treated with 200 μL of a 1 mM methanolic solution of the amino-functionalized disulfide and alkyne containing linker (scheme V) containing 5% diisopropylethylamine (DIEA) and incubated overnight at 4° C. The microtiter plate was then washed with 2×200 μL methanol and 2×200 μL water. Next, 200 μL solutions of azido-functionalized oligomannose derivatives 21-25 at varying concentrations from 0 to 500 μM in 5% DIEA/methanol were introduced. A sprinkle of copper (I) iodide was added and the contents were allowed to react overnight at 4° C. The next day, the contents were removed and the plates were washed with 2×200 μL methanol and 2×200 μL water. The plates were then blocked with 0.1% Tween20 solution in HEPES buffer pH 7.5 at 4° C. for 1 hour and then washed with 3×200 μL HEPES buffer. […] Detection of the FITC-tagged secondary antibody was performed in 200 μL water using a fluorescence plate reader. […]
Carbohydrate Microarray Analysis. […] Kd values for the interaction of 2G12 with oligomannoses 4, 5, 7, 8, 9 (Table 9) were determined using a microtiter-based assay with detection via a fluorescent secondary antibody (see Bryan et al.(2004) J. Am. Chem. Soc. 126, 8640-41).

2G12 antibody [2] = assay: 2G12 binding, cleavable linker glycan array in microtiter plates (Example 10); set-up: species or system human; conditions: for 2G12 epitope / affinity: cleavable linker array
Protocol: Cleavable Linker Glycan Array in Microtiter Plates: Further experiments were performed using glycans immobilized within microtiter wells with the cleavable triazole linkers described in Example 7 as shown in FIG. 11.
2G12 Binding: After washing with QH2O, wells were blocked with 10 mM HEPES buffer, pH 7.5/150 mM NaCl buffer (200 μL) containing 0.1% Tween-20 over 1 h at 4° C. The buffer was then removed and 2G12 (17 μg/mL PBS buffer; 200 μL) was incubated in the well over 1 h at 4° C. Wells were then washed with PBS buffer (3×; 200 μL) and fluorescein-conjugated Goat Anti-Human IgG antibody (14 μg/mL PBS buffer; 200 μL) was incubated in the well over 1 h in the dark at 4° C. Wells were then washed with PBS buffer (3×; 200 μL) and fluorescence was measured with an excitation wavelength of 485 nm and emission wavelength of 535 nm.
Further studies were performed using a cleavable linker array to clarify the types of mannose-containing glycans bound by the 2G12 anti-HIV antibodies. […] The results of a binding study using increasing amounts of labeled Manα1,2Manα1,3Manα1,2 Manα1,6Man glycan with a constant amount of 2G12 antibody are shown in FIG. 16.

[3] = tested on: 2G12 binding to gp120JR-CSF; assay: Solution phase ELISA, oligomannose inhibition of 2G12 binding to gp120; set-up: species or system human; conditions: oligomannose at 0.5 mM
Protocol: Enzyme-linked immunosorbent assay. Microtiter plate wells (flat bottom, Costar type 3690; Corning Inc.) were coated with 50 ng/well gp120JR-CSF overnight at 4° C. All subsequent steps were performed at room temperature. The wells were then washed four times with PBS/0.05% (vol/vol) Tween20 (Sigma) using a microplate washer (SkanWash 400, Molecular Devices) prior to blocking for 1 hr with 3% (mass/vol) BSA. IgG 2G12, diluted to 0.5 μg/mL (25 ng/well) with 1% (mass/vol) BSA/0.02% (vol/vol) Tween20/PBS (PBS-BT), was then added for 2 hrs to the antigen-coated wells in the presence of serially-diluted oligomannoses starting at 2 mM.
Unbound antibody was removed by washing four times, as described above. Bound 2G12 was detected with an alkaline phosphatase-conjugated goat anti-human IgG F(ab′)2 antibody (Pierce) diluted 1:1000 in PBS-BT. After 1 hr, the wells were washed four times and bound antibody was visualized with p-nitrophenol phosphate substrate (Sigma) and monitored at 405 nm.
Solution Phase ELISA Assay Analysis of Oligomannose 1-8 Inhibition of 2G12 Binding. Man9GlcNAc2 1 and deprotected oligomannoses 2-6 and 7-9 (see FIG. 17) were evaluated for their ability to inhibit the interaction between 2G12 and gp120 in a solution phase enzyme-linked immunosorbent assay (ELISA). […]

T1 sequence (Q92183 whole entry): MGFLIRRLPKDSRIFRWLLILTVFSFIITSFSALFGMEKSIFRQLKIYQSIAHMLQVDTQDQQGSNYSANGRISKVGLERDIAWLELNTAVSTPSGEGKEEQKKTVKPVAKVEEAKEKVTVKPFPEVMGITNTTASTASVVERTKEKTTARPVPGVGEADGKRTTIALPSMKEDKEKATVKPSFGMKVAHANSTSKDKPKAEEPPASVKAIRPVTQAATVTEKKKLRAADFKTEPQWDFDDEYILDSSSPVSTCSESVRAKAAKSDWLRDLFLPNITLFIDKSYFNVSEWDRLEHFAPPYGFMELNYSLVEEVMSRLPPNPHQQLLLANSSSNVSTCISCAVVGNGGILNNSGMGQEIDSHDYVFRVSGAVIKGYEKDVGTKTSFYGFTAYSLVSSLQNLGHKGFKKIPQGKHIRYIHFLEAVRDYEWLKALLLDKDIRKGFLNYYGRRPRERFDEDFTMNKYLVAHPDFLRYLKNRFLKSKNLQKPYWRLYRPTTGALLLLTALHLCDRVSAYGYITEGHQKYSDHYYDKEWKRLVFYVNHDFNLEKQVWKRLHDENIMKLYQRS

Row | Molecule | chST6GalNAc-I activity, cpm (chST6GalNAc-I) | chST6GalNAc-I activity, nmol/mg × min^−1 (chST6GalNAc-I) | Rel. spec. (relative binding activity of 2G12) (2G12 anti-HIV antibody) | other results
1 | OCC1O[C@@H](O)C(O)[C@@H](O)[C@@H]1O[C@@H]1OC(CO)[C@H](O)[C@H](O)C1O (some centres unmarked) [Compound 4] | 3043 cpm | 2.90 nmol/mg × min^−1 | − (− = <1000) | 
2 | O=[N+]([O-])c1ccc(O[C@@H]2OC(CO)[C@@H](O[C@@H]3OC(CO)[C@H](O)[C@H](O)C3O)[C@H](O)C2O)cc1 (some centres unmarked) [Compound 5] | 1421 cpm | 1.30 nmol/mg × min^−1 | − (− = <1000) | 
3 | CC(=O)N[C@H]1C(O)O[C@H](CO)[C@@H](O[C@@H]2O[C@H](CO)[C@H](O)[C@H](O)[C@H]2O)[C@@H]1O (some centres unmarked) [Compound 6] | 13277 cpm | 12.50* nmol/mg × min^−1 | − (− = <1000) | 
4 | CC(=O)N[C@H]1C(O)O[C@H](CO)[C@H](O)[C@@H]1O (stereo partly drawn) [D-GalNAc, reference compound] |  | 0.00 nmol/mg × min^−1 |  | 
5 | NCCCCCO[C@H]1O[C@H](CO[C@H]2O[C@H](CO)[C@@H](O)[C@H](O)[C@@H]2O[C@H]2O[C@H](CO)[C@@H](O)[C@H](O)[C@@H]2O)[C@@H](O)[C@H](O[C@H]2O[C@H](CO)[C@@H](O)[C@H](O)[C@@H]2O[C@H]2O[C@H](CO)[C@@H](O)[C@H](O)[C@@H]2O)[C@@H]1O [Oligomannose 5] |  |  |  | 2G12 binding affinity (2G12 antibody [1]): greatest affinity
6 | Man-8#aa Man8-aminoacid [Glycan 144] |  |  |  | 2G12 binding on glycan array (2G12 anti-HIV antibody): Binding was observed
7 | Man-9#aa Man9-aminoacid [Glycan 145] |  |  |  | 2G12 binding on glycan array (2G12 anti-HIV antibody): smaller level of binding
8 | Manα1,2 Manα1,2Manα1,3Man |  |  |  | Kd (2G12 antibody [2]; binding to 2G12, cleavable linker array): 100 nM; 2G12 epitope / affinity (2G12 antibody [2]): optimal epitope(s) with micromolar affinity to 2G12
9 | Manα1,2Manα1,3Manα1,2 Manα1,6Man |  |  |  | 2G12 epitope / affinity (2G12 antibody [2]): optimal epitope(s) with micromolar affinity to 2G12
10 | Oligomannose 3 |  |  |  | inhibition (%) of 2G12 binding to gp120 [3]: 15.8%
